Data from patent US20110039721A1, “METHOD FOR PREDICTION ABOUT CARCINOGENICITY OF SUBSTANCE IN RODENT” (Chemicals Evaluation and Research Institute, priority 2007, published 2011).

Tests used:
[1] = test system: mRNA expressed from the genes (A) to (D) in rat liver; assay: Behavior of genes (mRNA expression level, oligo-DNA microarray) in rat liver after 28-day oral administration; format: in vivo; conditions: mRNA vs vehicle control group; for Behavior of gene caused by administration of chemical substance, Gene No. 4846 / Behavior of gene caused by administration of chemical substance, Gene No. 2026 / Behavior of gene caused by administration of chemical substance, Gene No. 4218 / Behavior of gene caused by administration of chemical substance, Gene No. 6182 / Behavior of gene caused by administration of chemical substance, Gene No. 5600: gene group (A); for Behavior of gene caused by administration of chemical substance, Gene No. 4846: Unigene No. Rn.144554; for Behavior of gene caused by administration of chemical substance, Gene No. 2026 / Behavior of gene caused by administration of chemical substance, Gene No. 4218: Unigene No. Rn.167075; for Behavior of gene caused by administration of chemical substance, Gene No. 6182: Unigene No. Rn.5834; for Behavior of gene caused by administration of chemical substance, Gene No. 5600: Unigene No. Rn.9836; for Behavior of gene caused by administration of chemical substance, Gene No. 1494 / Behavior of gene caused by administration of chemical substance, Gene No. 2045 / Behavior of gene caused by administration of chemical substance, Gene No. 2203: gene group (B); for Behavior of gene caused by administration of chemical substance, Gene No. 1494: Unigene No. Rn.1430; for Behavior of gene caused by administration of chemical substance, Gene No. 2045: Unigene No. Rn.19329; for Behavior of gene caused by administration of chemical substance, Gene No. 2203: Unigene No. Rn.21240; for Behavior of gene caused by administration of chemical substance, Gene No. 533 / Behavior of gene caused by administration of chemical substance, Gene No. 725 / Behavior of gene caused by administration of chemical substance, Gene No. 1163 / Behavior of gene caused by administration of chemical substance, Gene No. 4973 / Behavior of gene caused by administration of chemical substance, Gene No. 4095 / Behavior of gene caused by administration of chemical substance, Gene No. 1334 / Behavior of gene caused by administration of chemical substance, Gene No. 6620 / Behavior of gene caused by administration of chemical substance, Gene No. 6303 / Behavior of gene caused by administration of chemical substance, Gene No. 5878 / Behavior of gene caused by administration of chemical substance, Gene No. 1131 / Behavior of gene caused by administration of chemical substance, Gene No. 1562 / Behavior of gene caused by administration of chemical substance, Gene No. 1741 / Behavior of gene caused by administration of chemical substance, Gene No. 893 / Behavior of gene caused by administration of chemical substance, Gene No. 6026 / Behavior of gene caused by administration of chemical substance, Gene No. 154 / Behavior of gene caused by administration of chemical substance, Gene No. 1993 / Behavior of gene caused by administration of chemical substance, Gene No. 813 / Behavior of gene caused by administration of chemical substance, Gene No. 2494 / Behavior of gene caused by administration of chemical substance, Gene No. 2546 / Behavior of gene caused by administration of chemical substance, Gene No. 3776 / Behavior of gene caused by administration of chemical substance, Gene No. 3929 / Behavior of gene caused by administration of chemical substance, Gene No. 1119 / Behavior of gene caused by administration of chemical substance, Gene No. 6742 / Behavior of gene caused by administration of chemical substance, Gene No. 5634: gene group (C); for Behavior of gene caused by administration of chemical substance, Gene No. 533: Unigene No. Rn.106184; for Behavior of gene caused by administration of chemical substance, Gene No. 725: Unigene No. Rn.108075; for Behavior of gene caused by administration of chemical substance, Gene No. 1163: Unigene No. Rn.11766; for Behavior of gene caused by administration of chemical substance, Gene No. 4973: Unigene No. Rn.118529; for Behavior of gene caused by administration of chemical substance, Gene No. 4095: Unigene No. Rn.119024; for Behavior of gene caused by administration of chemical substance, Gene No. 1334 / Behavior of gene caused by administration of chemical substance, Gene No. 6620: Unigene No. Rn.120914; for Behavior of gene caused by administration of chemical substance, Gene No. 6303: Unigene No. Rn.123063; for Behavior of gene caused by administration of chemical substance, Gene No. 5878: Unigene No. Rn.143213; for Behavior of gene caused by administration of chemical substance, Gene No. 1131: Unigene No. Rn.144946; for Behavior of gene caused by administration of chemical substance, Gene No. 1562: Unigene No. Rn.14744; for Behavior of gene caused by administration of chemical substance, Gene No. 1741: Unigene No. Rn.1647; for Behavior of gene caused by administration of chemical substance, Gene No. 893: Unigene No. Rn.164817; for Behavior of gene caused by administration of chemical substance, Gene No. 6026: Unigene No. Rn.167685; for Behavior of gene caused by administration of chemical substance, Gene No. 154: Unigene No. Rn.185941; for Behavior of gene caused by administration of chemical substance, Gene No. 1993: Unigene No. Rn.18728; for Behavior of gene caused by administration of chemical substance, Gene No. 813: Unigene No. Rn.201760; for Behavior of gene caused by administration of chemical substance, Gene No. 2494: Unigene No. Rn.23969; for Behavior of gene caused by administration of chemical substance, Gene No. 2546: Unigene No. Rn.24561; for Behavior of gene caused by administration of chemical substance, Gene No. 3776: Unigene No. Rn.43232; for Behavior of gene caused by administration of chemical substance, Gene No. 3929: Unigene No. Rn.4620; for Behavior of gene caused by administration of chemical substance, Gene No. 1119: Unigene No. Rn.9757; for Behavior of gene caused by administration of chemical substance, Gene No. 6742: Unigene No. Rn.9779; for Behavior of gene caused by administration of chemical substance, Gene No. 5634: Unigene No. Rn.9862; for Behavior of gene caused by administration of chemical substance, Gene No. 5726: gene group (D), Unigene No. Rn.9939
In short: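 Oral gavage, once daily × 28 days; male F344 SPF rats, 5 wk, n=4/group; vehicle controls given equal solvent volume. Liver excised day 28, total RNA purified. Significance: ≥1.5× or ≤1/1.5 of vehicle, direction concordant with other carcinogens.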

liver = conditions: classification of the substance (Cr+/Cr−); cited from earlier work
rodent = conditions: classification of the substance (C+/C−); cited from earlier work
[2] = classification of the substance (M+/M−); cited from earlier work

| Compound | Behavior of gene caused by administration of chemical substance, Gene No. 4846 [1] | Behavior of gene caused by administration of chemical substance, Gene No. 2026 [1] | Behavior of gene caused by administration of chemical substance, Gene No. 4218 [1] | Behavior of gene caused by administration of chemical substance, Gene No. 6182 [1] | Behavior of gene caused by administration of chemical substance, Gene No. 5600 [1] | Behavior of gene caused by administration of chemical substance, Gene No. 1494 [1] | Behavior of gene caused by administration of chemical substance, Gene No. 2045 [1] | Behavior of gene caused by administration of chemical substance, Gene No. 2203 [1] | Behavior of gene caused by administration of chemical substance, Gene No. 533 [1] | Behavior of gene caused by administration of chemical substance, Gene No. 725 [1] | Behavior of gene caused by administration of chemical substance, Gene No. 1163 [1] | Behavior of gene caused by administration of chemical substance, Gene No. 4973 [1] | Behavior of gene caused by administration of chemical substance, Gene No. 4095 [1] | Behavior of gene caused by administration of chemical substance, Gene No. 1334 [1] | Behavior of gene caused by administration of chemical substance, Gene No. 6620 [1] | Behavior of gene caused by administration of chemical substance, Gene No. 6303 [1] | Behavior of gene caused by administration of chemical substance, Gene No. 5878 [1] | Behavior of gene caused by administration of chemical substance, Gene No. 1131 [1] | Behavior of gene caused by administration of chemical substance, Gene No. 1562 [1] | Behavior of gene caused by administration of chemical substance, Gene No. 1741 [1] | further results |
| --- | --- | --- | --- | --- | --- | --- | --- | --- | --- | --- | --- | --- | --- | --- | --- | --- | --- | --- | --- | --- | --- |
| C#C[C@]1(O)CC[C@H]2[C@@H]3CCc4cc(O)ccc4[C@H]3CC[C@@]21C [TS019, Ethinylestradiol] | + | − | − | + | − | − | − | + | + | + | + | + | + | + | + | + | + | + | + | + | Behavior of gene caused by administration of chemical substance, Gene No. 893 [1]: +; Behavior of gene caused by administration of chemical substance, Gene No. 6026 [1]: +; Behavior of gene caused by administration of chemical substance, Gene No. 154 [1]: +; Behavior of gene caused by administration of chemical substance, Gene No. 1993 [1]: +; Behavior of gene caused by administration of chemical substance, Gene No. 813 [1]: −; Behavior of gene caused by administration of chemical substance, Gene No. 2494 [1]: +; Behavior of gene caused by administration of chemical substance, Gene No. 2546 [1]: +; Behavior of gene caused by administration of chemical substance, Gene No. 3776 [1]: +; Behavior of gene caused by administration of chemical substance, Gene No. 3929 [1]: +; Behavior of gene caused by administration of chemical substance, Gene No. 1119 [1]: +; Behavior of gene caused by administration of chemical substance, Gene No. 6742 [1]: −; Behavior of gene caused by administration of chemical substance, Gene No. 5634 [1]: +; Behavior of gene caused by administration of chemical substance, Gene No. 5726 [1]: −; Liver carcinogenicity (liver): Cr+; Carcinogenicity (rodent): C+; Mutagenicity by Ames test [2]: M− |
| ClC=C(Cl)Cl [TS022, Trichloroethylene] | + | − | − | + | − | + | + | + | − | − | − | − | − | − | − | − | − | − | − | − | Behavior of gene caused by administration of chemical substance, Gene No. 893 [1]: −; Behavior of gene caused by administration of chemical substance, Gene No. 6026 [1]: −; Behavior of gene caused by administration of chemical substance, Gene No. 154 [1]: −; Behavior of gene caused by administration of chemical substance, Gene No. 1993 [1]: −; Behavior of gene caused by administration of chemical substance, Gene No. 813 [1]: −; Behavior of gene caused by administration of chemical substance, Gene No. 2494 [1]: −; Behavior of gene caused by administration of chemical substance, Gene No. 2546 [1]: −; Behavior of gene caused by administration of chemical substance, Gene No. 3776 [1]: −; Behavior of gene caused by administration of chemical substance, Gene No. 3929 [1]: −; Behavior of gene caused by administration of chemical substance, Gene No. 1119 [1]: −; Behavior of gene caused by administration of chemical substance, Gene No. 6742 [1]: +; Behavior of gene caused by administration of chemical substance, Gene No. 5634 [1]: −; Behavior of gene caused by administration of chemical substance, Gene No. 5726 [1]: −; Liver carcinogenicity (liver): Cr−; Carcinogenicity (rodent): C+; Mutagenicity by Ames test [2]: M− |
| COc1ccc(O)c(C(C)(C)C)c1 [TS023, Butylated hydroxyanisole] | − | − | − | − | − | − | − | + | − | + | + | + | + | − | − | − | − | − | − | − | Behavior of gene caused by administration of chemical substance, Gene No. 893 [1]: −; Behavior of gene caused by administration of chemical substance, Gene No. 6026 [1]: −; Behavior of gene caused by administration of chemical substance, Gene No. 154 [1]: +; Behavior of gene caused by administration of chemical substance, Gene No. 1993 [1]: −; Behavior of gene caused by administration of chemical substance, Gene No. 813 [1]: −; Behavior of gene caused by administration of chemical substance, Gene No. 2494 [1]: −; Behavior of gene caused by administration of chemical substance, Gene No. 2546 [1]: −; Behavior of gene caused by administration of chemical substance, Gene No. 3776 [1]: −; Behavior of gene caused by administration of chemical substance, Gene No. 3929 [1]: −; Behavior of gene caused by administration of chemical substance, Gene No. 1119 [1]: −; Behavior of gene caused by administration of chemical substance, Gene No. 6742 [1]: −; Behavior of gene caused by administration of chemical substance, Gene No. 5634 [1]: −; Behavior of gene caused by administration of chemical substance, Gene No. 5726 [1]: −; Liver carcinogenicity (liver): Cr−; Carcinogenicity (rodent): C+; Mutagenicity by Ames test [2]: M− |
